Data set [1] relates to Excrement Enterococcus. The data set is described as follows: Vitro bacteriostasis experiment, two-fold agar dilution method. The data set is classed as cell-based. On the procedure:
(§1) Vitro bacteriostasis experiments of Compounds Ia, Ib, and Ic were performed using the two-fold agar dilution method.
A general note: Agar dilution tests growth on a series of plates holding different concentrations.

The subject of the next data set is Haemophilus Influenzae. The description is as above. It is filed as cell-based. On the procedure:
as §1

Data set [2] deals with Moraxella Catarrhalis. The data set is described as above. It is filed as cell-based. The procedure:
as §1

For data set [3], the system named is Pneumonia Chain Coccus. The data set is described as above. The data set is classed as cell-based. The procedure: as §1
The next data set relates to Shigella. The description is as above. The data set is classed as cell-based. On the procedure:
as §1

The test system of another data set is Type A Chain Coccus. Described as above. It is filed as cell-based. On the procedure: as §1
For another data set, the system named is Type B Chain Coccus. The data set is described as above. The data set is classed as cell-based. On the procedure:
as §1

The format of data set [4] is in vivo. The settings on record: for t1/2β: single intravenous administration (Ia 50 mg/kg·bw). The procedure: The inventors conducted preliminary pharmacokinetic study of Compound Ia on Beagle dogs. The Beagle dogs were allowed to drink water freely but not to eat food for 16 hours before and 4 hours after the intravenous injection of 50 mg/kg·bw of the compound. Intravenous blood sampling took place at 0, 0.083, 0.17, 0.25, 0.5, 1, 1.5, 2, 3, 4, 6, 9, 12 hours, respectively, after the injection, each blood sample being 3 mL. Thereafter the dogs were given the drugs every other week and blood samples were taken according to the above manner. The blood samples were added to the centrifuge tubes containing heparin and thoroughly mixed by centrifuging at 4000 rpm for 10 minutes. The blood plasma was separated and an abstraction agent (methanol/ethyl acetate 3:2 V/V) was added to and mixed with it by centrifuging at 10000 rpm for 10 minutes. The top, clear liquid, 20 μL, was taken and analyzed by HPLC.

Data set [5] can be described thus: Acute toxicity tests on rats. It is filed as in vivo. The settings on record: intravenous injection.
The test system of data set [6] is Excrement Enterococcus. The data set is described as follows: In-vivo antibacterial activity (protection of rats).
Data set [7] relates to Pneumonia Chain Coccus. The description is as above.
Data set [8] concerns Moraxella Catarrhalis. The description is as above.
Data set [9] in a line: Muscle stimulation test on rabbits. Also on record: species or system New Zealand rabbits. The settings on record: rabbit, in vivo. From the text:
The inventors have conducted the muscle stimulation test of Compounds Ia and II on rabbits. The test is as follows. Eight New Zealand rabbits were divided into three groups. Two groups, containing three rabbits per group, were administrated with Compound Ia and Compound II, respectively. The third group, containing two rabbits, was used as a negative control group. The rabbits were intramuscularly injected with high concentrations of the compounds into the left quadriceps and with low concentration into the right quadriceps. The negative control group was injected with an equal concentration of sodium chloride into the quadriceps of both sides. Each quadriceps was administrated with 1.0 mL once a day for three consecutive days. One or two rabbits from each group were anatomized after 48 hours of the injection. The remaining rabbits were anatomized after the end of the two-week recovery period.

Data set [10] in a line: Stability in aqueous injection solutions at 37° C. The data set is classed as physicochemical. The source says:
(§2) Compared to Compound II, Compound I has better stability in aqueous solution (see Table 2) and in the solid state (See Table 3). Thus Compound I can be stored without freezing or special treatment.

Data set [11] in a line: Stability in the solid state, storage at various temperatures. The data set is classed as physicochemical.
Description: as §2

Data set [12] in a line: pH value of aqueous solution. It is filed as physicochemical. The settings on record: for pH: concentration 0.1 g/mL. The procedure: The pH value of its saturated aqueous solution is 3.2.
At 5° C., sodium carbonate (0.1 g) was dissolved in deionized water (5 mL) in a three-neck flask. Compound II (1 g) was added to the flask with agitation (350 rpm) and the reaction was carried out for 45 minutes. The reaction mixture was discolored with activated carbon and then filtered. The filtration liquid was dropwise added to 80 mL of acetone to precipitate. The precipitation was monitored by an on-line particle analyzing instrument. The mixture was filtered and the solid was washed twice with acetone. Drying under vacuum at 40° C. for 24 hours gave 0.75 g of Compound Ia with a purity of 98.35% (HPLC) and pH 7.3 (concentration 0.1 g/mL).

A short description of another data set: Solubility. It is filed as physicochemical. The source says:
Its chemical name is 7-(α-((N,N-diisopropylamidino)thio)acetylamino)-3-(((1,2,5,6-tetrahydro-2-methyl-5,6-dioxo-1,2,4-triazin-3-yl)thio)methyl) cephalosporanic acid mono sodium salt (Compound Ia).

[13] abbreviates: healthy Beagle dogs, single intravenous administration 50 mg/kg·bw.

Each structure is given as a SMILES string.

The term AUC denotes the area under the concentration-time curve, a measure of exposure. Read a high AUC as more exposure. What is called Cmax is the maximum level reached in the sampled fluid or tissue. What is called LD50 is the dose expected to kill half of the subjects tested. In the case of `CC(C)N(C(=N)SCC(=O)NC1C(=O)N2C(C(=O)[O-])=C(CSc3nc(=O)c(=O)[nH]n3C)CSC12)C(C)C.[Na+]` (stereo not drawn) [Compound Ia, 7-(α-((N,N-diisopropylamidino)thio)acetylamino)-3-(((1,2,5,6-tetrahydro-2-methyl-5,6-dioxo-1,2,4-triazin-3-yl)thio)methyl) cephalosporanic acid mono sodium salt], the MIC90 is 8 µg/mL in the data set on Excrement Enterococcus [1]; 0.5 µg/mL with Haemophilus Influenzae; 1 µg/mL against Moraxella Catarrhalis [2]; 0.125 µg/mL against Pneumonia Chain Coccus [3]; 4 µg/mL with Shigella; 0.5 µg/mL against Type A Chain Coccus. In the data set on Type B Chain Coccus, the MIC90 is 0.0625 µg/mL. This molecule yielded an AUC in data set [4] (setting [13]) of 108.29 ± 18.17 µg·h/mL. Further, the CIB in data set [4] (setting [13]) is 783 ± 1.5 mL/min/kg. In addition, the V1 in [4] (setting [13]) was found to be 0.25 ± 0.07 L/kg. The VB in [4] (setting [13]) is 1.61 ± 0.30 L/kg. Moreover, in data set [4] (setting [13]), the t1/2α was found to be 37.8 ± 7.2 min. In addition, the Cmax in data set [4] (healthy Beagle dogs, single intravenous administration 50 mg/kg·bw, plasma) turned out to be 116.35 ± 12.06 µg/mL. Further, the “drug concentration after 12 hours of the administration” value in data set [4] (healthy Beagle dogs, single intravenous administration 50 mg/kg·bw, plasma, 12 hours) came out at 0.39 ± 0.09 µg/mL. Moreover, the t1/2β in data set [4] (healthy Beagle dogs) turned out to be 155 ± 2.4 min. In [5], this molecule gave an LD50 of 1747.6 mg/kg. In addition, in the data set on Excrement Enterococcus [6], the “protection for rats against Excrement Enterococcus” value is recorded as “excellent protection”. For the same molecule, in the data set with Pneumonia Chain Coccus [7], the “protection for rats against Pneumonia Chain Coccus” value is on record as “excellent protection”. Besides, in the data set with Moraxella Catarrhalis [8], the “protection for rats against Moraxella Catarrhalis” value is “excellent protection”. The muscle irritation observed entry in [9] was “slight irritation”. Also, the “content in aqueous injection solution” value in [10] (0 hr) turned out to be 98.60%; in data set [10] (0.2 hr), 98.60%; in [10] (1 hr), 97.98%; in data set [10] (2 hr), 97.79%; in [10] (3 hr), 97.24%; in data set [10] (4 hr), 97.13%. Moreover, the “content after 72 hours in storage” value in data set [11] (10° C.) worked out at 96.9%; in data set [11] (40° C.) it was 96.6%; in data set [11] (60° C.), 96.4%; in [11] (−5° C.), 97.0%. In [12], the pH is listed as 7.3. For the same molecule, in [12] (concentration not given), the pH value is listed as 7.3. The solubility in acetone result in the data set “Solubility” is “not readily soluble”. Further, in “Solubility”, the “solubility in anhydrous ethanol” value is “not readily soluble”. Besides, in “Solubility”, the solubility in methanol result is reported as “readily soluble”. Further, in the data set “Solubility”, the solubility in water entry is on record as “readily soluble”.

For `CC(C)N(C(=N)SCC(=O)NC1C(=O)N2C(C(=O)[O-])=C(CSc3nc(=O)c(=O)[nH]n3C)CSC12)C(C)C.[K+]` (stereo not drawn) [Compound Ic, 7-(α-((N,N-diisopropylamidino)thio)acetylamino)-3-(((1,2,5,6-tetrahydro-2-methyl-5,6-dioxo-1,2,4-triazin-3-yl)thio)methyl) cephalosporanic acid monopotassium salt], the MIC90 with Excrement Enterococcus [1] was 8 µg/mL; in the data set on Haemophilus Influenzae, 0.5 µg/mL; against Moraxella Catarrhalis [2], 0.5 µg/mL; with Pneumonia Chain Coccus [3], 0.5 µg/mL; in the data set on Shigella, 4 µg/mL; against Type A Chain Coccus, 0.1 µg/mL. The MIC90 against Type B Chain Coccus was determined as 0.0156 µg/mL.

`CC(=O)OCC1=C(C(=O)O)N2C(=O)[C@@H](NC(=O)CSC(=NC(C)C)NC(C)C)[C@H]2SC1` [cefathiamidine, reference compound]: the “biological half-life in blood” value in data set [4] (Beagle dogs, preliminary pharmacokinetic study) turned out to be 0.65 hours. Moreover, in [4] (healthy Beagle dogs), the t1/2β amounted to 39 ± 1.8 min. The same molecule had an LD50 in [5] of 824.2 mg/kg.

Regarding `CC(C)N=C(NC(C)C)SCC(=O)NC1C(=O)N2C(C(=O)[O-])=C(CSc3nc(=O)c(=O)[nH]n3C)CSC12.CC(C)N=C(NC(C)C)SCC(=O)NC1C(=O)N2C(C(=O)[O-])=C(CSc3nc(=O)c(=O)[nH]n3C)CSC12.[Na+].[Na+]` (stereo not drawn) [Compound Ib, disodium 7-(α-((N,N′-diisopropylamidino)thio)acetylamino)-3-(((1,2,5,6-tetrahydro-2-methyl-5,6-dioxo-1,2,4-triazin-3-yl)thio)methyl) cephalosporanate], the MIC90 was 4 µg/mL against Excrement Enterococcus [1]; 0.5 µg/mL in the data set on Haemophilus Influenzae; 0.5 µg/mL in the data set on Moraxella Catarrhalis [2]; 0.5 µg/mL against Pneumonia Chain Coccus [3]; 4 µg/mL against Shigella; 0.1 µg/mL in the data set on Type A Chain Coccus. For the same molecule, in the data set on Type B Chain Coccus, the MIC90 worked out at 0.0125 µg/mL. The “content in aqueous injection solution” value in [10] (0 hr) came out at 98.80%; in [10] (0.2 hr) it was 98.54%; in [10] (1 hr), 97.14%; in data set [10] (2 hr) it was 96.66%; in data set [10] (3 hr) it was 95.21%; in [10] (4 hr), 94.30%. In [12], this molecule registered a pH of 10.02.
